The record followed here is patent US10040781B2, “Tank-binding kinase inhibitor compounds” (Gilead Sciences, Inc., priority 2014, dated 2018).

One assay addresses IKKε (Homo sapiens (Human), UniProt Q14164). The assay can be described thus: IKKε TR-FRET enzymatic assay. The assay is classed as biochemical. The note with it: read-out: IKKe IC50. (In general: In TR-FRET formats the signal depends on donor and acceptor labels being close together.)
The target of a further assay is hJAK2 (Homo sapiens (Human), UniProt O60674). Briefly: hJAK2 LANCE TR-FRET enzymatic assay. It counts as biochemical. The following applies: read-out: JAK2 IC50.
Chain of hJAK2 (O60674 whole entry): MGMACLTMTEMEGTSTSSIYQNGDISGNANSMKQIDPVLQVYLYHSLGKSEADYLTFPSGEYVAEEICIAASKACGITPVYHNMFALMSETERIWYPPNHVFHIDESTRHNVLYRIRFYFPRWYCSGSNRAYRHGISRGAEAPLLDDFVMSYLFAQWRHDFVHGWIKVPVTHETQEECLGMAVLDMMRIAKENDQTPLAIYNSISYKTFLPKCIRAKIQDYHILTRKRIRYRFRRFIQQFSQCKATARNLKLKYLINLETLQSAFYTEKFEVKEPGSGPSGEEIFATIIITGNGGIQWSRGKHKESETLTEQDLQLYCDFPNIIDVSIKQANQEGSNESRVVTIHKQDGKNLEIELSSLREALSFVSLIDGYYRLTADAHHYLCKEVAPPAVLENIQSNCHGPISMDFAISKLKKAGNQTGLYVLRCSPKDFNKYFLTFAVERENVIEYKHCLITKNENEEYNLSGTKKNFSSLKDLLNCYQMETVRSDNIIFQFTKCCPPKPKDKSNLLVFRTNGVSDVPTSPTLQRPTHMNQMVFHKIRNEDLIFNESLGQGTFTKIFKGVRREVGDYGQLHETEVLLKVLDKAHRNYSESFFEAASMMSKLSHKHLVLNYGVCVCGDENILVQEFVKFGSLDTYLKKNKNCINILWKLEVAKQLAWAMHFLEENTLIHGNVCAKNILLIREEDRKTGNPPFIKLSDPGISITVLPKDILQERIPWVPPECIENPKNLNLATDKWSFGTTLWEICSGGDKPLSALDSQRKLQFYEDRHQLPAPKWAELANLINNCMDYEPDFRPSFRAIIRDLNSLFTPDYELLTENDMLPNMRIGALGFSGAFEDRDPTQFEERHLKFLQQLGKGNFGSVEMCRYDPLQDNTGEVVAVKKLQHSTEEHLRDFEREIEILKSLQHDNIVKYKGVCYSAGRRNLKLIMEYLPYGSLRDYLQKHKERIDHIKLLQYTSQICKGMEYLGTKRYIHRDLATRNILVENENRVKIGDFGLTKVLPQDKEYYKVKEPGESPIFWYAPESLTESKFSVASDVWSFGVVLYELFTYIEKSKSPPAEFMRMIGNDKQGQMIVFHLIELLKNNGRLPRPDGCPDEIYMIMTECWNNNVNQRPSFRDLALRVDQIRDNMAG
The next assay deals with TBK1 (Homo sapiens (Human), UniProt Q9UHD2). The assay can be described thus: TBK1 TR-FRET enzymatic assay.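 Also: phosphorylation of a biotinylated Ser/Thr peptide by purified full-length recombinant TBK1, read by TR-FRET after 240 min at 25 °C, IC50 is the geometric mean of at least four runs.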
Chain of TBK1 (Q9UHD2 whole entry): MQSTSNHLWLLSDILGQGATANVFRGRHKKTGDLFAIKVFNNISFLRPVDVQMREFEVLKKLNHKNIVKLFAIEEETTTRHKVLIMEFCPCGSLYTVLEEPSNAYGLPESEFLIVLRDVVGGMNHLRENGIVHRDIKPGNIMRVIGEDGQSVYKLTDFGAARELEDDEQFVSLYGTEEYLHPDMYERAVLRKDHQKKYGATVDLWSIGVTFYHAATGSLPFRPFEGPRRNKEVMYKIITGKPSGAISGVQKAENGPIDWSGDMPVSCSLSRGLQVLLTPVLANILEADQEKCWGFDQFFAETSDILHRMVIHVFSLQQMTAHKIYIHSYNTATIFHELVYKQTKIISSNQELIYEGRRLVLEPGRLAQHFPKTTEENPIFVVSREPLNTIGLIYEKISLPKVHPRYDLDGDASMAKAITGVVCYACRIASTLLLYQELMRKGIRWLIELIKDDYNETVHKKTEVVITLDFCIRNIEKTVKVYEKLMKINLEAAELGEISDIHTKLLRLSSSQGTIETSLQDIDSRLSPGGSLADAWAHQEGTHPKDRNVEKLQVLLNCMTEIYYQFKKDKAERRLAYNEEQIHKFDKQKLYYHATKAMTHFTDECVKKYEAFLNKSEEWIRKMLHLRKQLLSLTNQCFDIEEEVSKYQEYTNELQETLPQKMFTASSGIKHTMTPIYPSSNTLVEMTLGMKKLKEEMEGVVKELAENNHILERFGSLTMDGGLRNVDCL

Bounds are passed on as bounds.

Chain of IKKε (Q14164 whole entry): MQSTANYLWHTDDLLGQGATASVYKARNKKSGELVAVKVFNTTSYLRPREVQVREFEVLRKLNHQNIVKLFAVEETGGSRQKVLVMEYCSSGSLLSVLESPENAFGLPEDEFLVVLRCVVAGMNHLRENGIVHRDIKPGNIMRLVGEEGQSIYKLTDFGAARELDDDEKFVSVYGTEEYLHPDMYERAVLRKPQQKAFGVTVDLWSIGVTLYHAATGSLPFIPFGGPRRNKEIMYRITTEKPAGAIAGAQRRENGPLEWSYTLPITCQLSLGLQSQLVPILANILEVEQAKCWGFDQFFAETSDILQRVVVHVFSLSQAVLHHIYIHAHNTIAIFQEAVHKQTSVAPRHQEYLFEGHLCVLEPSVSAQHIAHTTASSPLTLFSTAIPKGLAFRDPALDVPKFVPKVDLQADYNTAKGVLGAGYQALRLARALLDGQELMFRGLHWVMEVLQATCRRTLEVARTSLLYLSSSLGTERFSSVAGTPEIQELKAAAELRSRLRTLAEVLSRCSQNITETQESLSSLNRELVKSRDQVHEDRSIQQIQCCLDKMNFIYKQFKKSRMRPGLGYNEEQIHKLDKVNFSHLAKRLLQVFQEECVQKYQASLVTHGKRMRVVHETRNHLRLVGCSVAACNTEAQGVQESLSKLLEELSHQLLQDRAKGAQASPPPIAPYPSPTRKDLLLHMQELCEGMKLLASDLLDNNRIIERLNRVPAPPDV

For the compound `COc1cc(Nc2ncnc(-c3ccc(OC4CCOCC4)c(C#N)c3)n2)cc(OC)c1OC` [Example 24, 2-((tetrahydro-2H-pyran-4-yl)oxy)-5-(4-((3,4,5-trimethoxyphenyl)amino)-1,3,5-triazin-2-yl)benzonitrile], the half-maximal inhibitory concentration (IC50) on IKKε is 0.002 µM; on hJAK2, 0.602 µM; at TBK1, 0.001 µM.
For the compound `N#Cc1cc(-c2ncnc(Nc3ccc(N4CCN(C5COC5)CC4)c(F)c3)n2)ccc1OC1CCOCC1` [Example 27, 5-(4-((3-fluoro-4-(4-(oxetan-3-yl)piperazin-1-yl)phenyl)amino)-1,3,5-triazin-2-yl)-2-((tetrahydro-2H-pyran-4-yl)oxy)benzonitrile], the figures for the IC50 at IKKε, on hJAK2 and against TBK1 were 0.007 µM, 0.988 µM and 0.002 µM, respectively.
Take `N#Cc1cc(-c2ncnc(Nc3ccc(N4CCN(C5COC5)CC4)cc3)n2)ccc1N1CCCC1=O` [Example 28, 5-[4-[4-[4-(oxetan-3-yl)piperazin-1-yl]anilino]-1,3,5-triazin-2-yl]-2-(2-oxopyrrolidin-1-yl)benzonitrile]: the IC50 worked out at 0.529 µM at IKKε, 0.583 µM at hJAK2 and 0.225 µM at TBK1.
Take `COc1cc(Nc2ncnc(-c3ccc(OC4CCOCC4)c(C#N)c3)n2)ccc1OC(F)F` [Example 31, 5-(4-((4-(difluoromethoxy)-3-methoxyphenyl)amino)-1,3,5-triazin-2-yl)-2-((tetrahydro-2H-pyran-4-yl)oxy)benzonitrile]: the results for the half-maximal inhibitory concentration (IC50) on IKKε, at hJAK2 and at TBK1 were 0.02 µM, over 1 µM and 0.009 µM, respectively.
With `COc1cc(Nc2ncnc(-c3ccc(OC4CCOCC4)c(C#N)c3)n2)ccc1N1CCN(C(C)=O)CC1` [Example 32, 5-(4-((4-(4-acetylpiperazin-1-yl)-3-methoxyphenyl)amino)-1,3,5-triazin-2-yl)-2-((tetrahydro-2H-pyran-4-yl)oxy)benzonitrile], the IC50 at IKKε was determined as 0.002 µM; at hJAK2, 0.068 µM; against TBK1 it was 0.001 µM.
For the compound `COc1cc(Nc2ncnc(-c3ccc(OC4CCS(=O)(=O)CC4)c(C#N)c3)n2)ccc1N1CCN(C2COC2)CC1` [Example 33, 2-((1,1-dioxidotetrahydro-2H-thiopyran-4-yl)oxy)-5-(4-((3-methoxy-4-(4-(oxetan-3-yl)piperazin-1-yl)phenyl)amino)-1,3,5-triazin-2-yl)benzonitrile], the IC50 was determined as 0.018 µM on IKKε, 0.059 µM on hJAK2 and 0.004 µM on TBK1.
As for `N#Cc1cc(-c2ncnc(Nc3ccc(N4CCN(C5COC5)CC4)cc3)n2)ccc1OC1CCCOC1` (stereo not drawn) [Example 34, 5-(4-((4-(4-(oxetan-3-yl)piperazin-1-yl)phenyl)amino)-1,3,5-triazin-2-yl)-2-((tetrahydro-2H-pyran-3-yl)oxy)benzonitrile], the half-maximal inhibitory concentration (IC50) was 0.045 µM at IKKε, over 1 µM on hJAK2 and 0.012 µM on TBK1.
In the case of `N#Cc1cc(-c2ncnc(Nc3ccc(N4CCN(C5COC5)CC4)cc3)n2)ccc1N1CC(O)C1` [Example 35, 2-(3-hydroxyazetidin-1-yl)-5-(4-((4-(4-(oxetan-3-yl)piperazin-1-yl)phenyl)amino)-1,3,5-triazin-2-yl)benzonitrile], the concentration for half-maximal inhibition (IC50) amounted to 0.029 µM at IKKε, 0.166 µM at hJAK2 and 0.007 µM on TBK1.
The matching figures for `N#Cc1cc(Nc2ncnc(-c3ccc(OC4CCOCC4)c(C#N)c3)n2)ccc1OC1CCOCC1` [Example 36, 5-((4-(3-cyano-4-((tetrahydro-2H-pyran-4-yl)oxy)phenyl)-1,3,5-triazin-2-yl)amino)-2-((tetrahydro-2H-pyran-4-yl)oxy)benzonitrile]: 0.012 µM, over 1 µM and 0.01 µM.
Regarding `N#Cc1cc(-c2ncnc(Nc3ccc(N4CCN(C5COC5)CC4)c(C#N)c3)n2)ccc1OC1CCOCC1` [Example 38, 5-((4-(3-cyano-4-((tetrahydro-2H-pyran-4-yl)oxy)phenyl)-1,3,5-triazin-2-yl)amino)-2-(4-(oxetan-3-yl)piperazin-1-yl)benzonitrile], the half-inhibitory concentration (IC50) is 0.006 µM on IKKε, over 1 µM on hJAK2 and 0.003 µM on TBK1.
The matching figures for `C=CC(=O)Nc1ccc(Nc2ncnc(-c3ccc(OC4CCOCC4)c(C#N)c3)n2)cc1` [Example 39, N-(4-((4-(3-cyano-4-((tetrahydro-2H-pyran-4-yl)oxy)phenyl)-1,3,5-triazin-2-yl)amino)phenyl)acrylamide]: 0.035 µM, over 1 µM and 0.006 µM.
`CC(C)(O)c1ccc(Nc2ncnc(-c3ccc(OC4CCOCC4)c(C#N)c3)n2)cc1` [Example 40, 5-(4-((4-(2-hydroxypropan-2-yl)phenyl)amino)-1,3,5-triazin-2-yl)-2-((tetrahydro-2H-pyran-4-yl)oxy)benzonitrile]: the concentration for half-maximal inhibition (IC50) on IKKε was 0.023 µM; on hJAK2 it was over 1 µM; at TBK1 it was 0.006 µM.
For `CNC(=O)N1CCC(Oc2ccc(-c3ncnc(Nc4ccc(N5CCN(C6COC6)CC5)cc4)n3)cc2C#N)CC1` [Example 41, 4-(2-cyano-4-(4-((4-(4-(oxetan-3-yl)piperazin-1-yl)phenyl)amino)-1,3,5-triazin-2-yl)phenoxy)-N-methylpiperidine-1-carboxamide], the IC50 on IKKε was 0.11 µM; at hJAK2, over 1 µM; against TBK1 it was 0.035 µM.
As to `N#Cc1cc(-c2ncnc(Nc3ccc(N4CCOCC4)cc3)n2)ccc1NC(=O)C1CC1` [Example 42, N-(2-cyano-4-(4-((4-morpholinophenyl)amino)-1,3,5-triazin-2-yl)phenyl)cyclopropanecarboxamide], the IC50 worked out at 0.071 µM on IKKε, 0.024 µM at hJAK2 and 0.035 µM at TBK1.
As to `N#Cc1cc(-c2ncnc(Nc3ccc(N4CCN(C5COC5)CC4)nc3)n2)ccc1OC1CCOCC1` [Example 43, 5-(4-((6-(4-(oxetan-3-yl)piperazin-1-yl)pyridin-3-yl)amino)-1,3,5-triazin-2-yl)-2-((tetrahydro-2H-pyran-4-yl)oxy)benzonitrile], the IC50 was 0.015 µM on IKKε, over 1 µM at hJAK2 and 0.007 µM against TBK1.
Consider `CC(C)(O)C(=O)N1CCC(Oc2ccc(-c3ncnc(Nc4ccc(N5CCN(C6COC6)CC5)cc4)n3)cc2C#N)CC1` [Example 45, 2-((1-(2-hydroxy-2-methylpropanoyl)piperidin-4-yl)oxy)-5-(4-((4-(4-(oxetan-3-yl)piperazin-1-yl)phenyl)amino)-1,3,5-triazin-2-yl)benzonitrile], for which the values for the concentration for half-maximal inhibition (IC50) at IKKε, on hJAK2 and against TBK1 were 0.243 µM, over 1 µM and 0.202 µM, respectively.
Turning to `CC(C)NC(=O)c1ccc(Nc2ncnc(-c3ccc(OC4CCOCC4)c(C#N)c3)n2)cc1` [Example 46, 4-((4-(3-cyano-4-((tetrahydro-2H-pyran-4-yl)oxy)phenyl)-1,3,5-triazin-2-yl)amino)-N-isopropylbenzamide], the concentration for half-maximal inhibition (IC50) at IKKε came to 0.009 µM; at hJAK2 it was 0.67 µM; at TBK1, 0.003 µM.
Take `CC(C)(O)c1cccc(Nc2ncnc(-c3ccc(OC4CCOCC4)c(C#N)c3)n2)c1` [Example 47, 5-(4-((3-(2-hydroxypropan-2-yl)phenyl)amino)-1,3,5-triazin-2-yl)-2-((tetrahydro-2H-pyran-4-yl)oxy)benzonitrile]: the concentration for half-maximal inhibition (IC50) was 0.014 µM on IKKε, 0.811 µM on hJAK2 and 0.002 µM on TBK1.
In the case of `N#Cc1cc(-c2ncnc(Nc3cccc(C(O)C(F)(F)F)c3)n2)ccc1OC1CCOCC1` (stereo not drawn) [Example 48, 2-((tetrahydro-2H-pyran-4-yl)oxy)-5-(4-((3-(2,2,2-trifluoro-1-hydroxyethyl)phenyl)amino)-1,3,5-triazin-2-yl)benzonitrile], the 50% inhibitory concentration (IC50) at IKKε was 0.031 µM; on hJAK2, over 1 µM; on TBK1 it was 0.003 µM.
Regarding `N#Cc1cc(-c2ncnc(Nc3ccc(N4CCOCC4)cc3)n2)ccc1OC1CCOCC1` [Example 49, 5-(4-((4-morpholinophenyl)amino)-1,3,5-triazin-2-yl)-2-((tetrahydro-2H-pyran-4-yl)oxy)benzonitrile], the IC50 at IKKε came to 0.007 µM; at hJAK2, 0.436 µM; against TBK1, 0.002 µM.
As for `N#Cc1cc(-c2ncnc(Nc3ccc(N4CCN(C5COC5)CC4)cc3)n2)ccc1OC1CCN(C(=O)CNC=O)CC1` [Example 51, N-(2-(4-(2-cyano-4-(4-((4-(4-(oxetan-3-yl)piperazin-1-yl)phenyl)amino)-1,3,5-triazin-2-yl)phenoxy)piperidin-1-yl)-2-oxoethyl)formamide], the IC50 on IKKε is 0.079 µM; at hJAK2 it was 0.408 µM; against TBK1 it was 0.026 µM.
On to `CC(=O)NCC(=O)N1CCC(Oc2ccc(-c3ncnc(Nc4ccc(N5CCN(C6COC6)CC5)cc4)n3)cc2C#N)CC1` [Example 52, N-(2-(4-(2-cyano-4-(4-((4-(4-(oxetan-3-yl)piperazin-1-yl)phenyl)amino)-1,3,5-triazin-2-yl)phenoxy)piperidin-1-yl)-2-oxoethyl)acetamide], for which the results for the concentration for half-maximal inhibition (IC50) on IKKε, on hJAK2 and at TBK1 were 0.223 µM, 0.491 µM and 0.065 µM, respectively.
As to `N#Cc1cc(-c2ncnc(Nc3ccc(N4CCOCC4)cc3)n2)ccc1N1CCCC1` [Example 53, 5-(4-((4-morpholinophenyl)amino)-1,3,5-triazin-2-yl)-2-(pyrrolidin-1-yl)benzonitrile], the IC50 at IKKε worked out at 0.018 µM; on hJAK2, 0.261 µM; against TBK1 it was 0.005 µM.
The corresponding values for `N#Cc1cc(-c2ncnc(Nc3ccc(C4CCN(C5COC5)CC4)cc3)n2)ccc1OC1CCOCC1` [Example 54, 5-(4-((4-(1-(oxetan-3-yl)piperidin-4-yl)phenyl)amino)-1,3,5-triazin-2-yl)-2-((tetrahydro-2H-pyran-4-yl)oxy)benzonitrile] are 0.004 µM, over 1 µM and 0.002 µM.
In the case of `N#Cc1cc(-c2ncnc(Nc3ccc(C(N)=O)cc3)n2)ccc1OC1CCOCC1` [Example 55], the IC50 on IKKε is 0.005 µM; on hJAK2, over 1 µM; at TBK1, 0.002 µM.

As usually defined, the IC50 is the concentration that gives 50% inhibition.
